According to the supplement of paper PMC10307832:

How the values were obtained:
Assay in all cases: relative viability (nuclei count vs DMSO), 5 days (fraction); higher = more cells survive
[1] = compound: Cc1ccc(C(=O)Nc2cccc(C(F)(F)F)c2)cc1Nc1cncc(C(N)=O)c1 [ALW-II-49-7] + CC(=O)Nc1cccc(-n2c(=O)n(C3CC3)c(=O)c3c(Nc4ccc(I)cc4F)n(C)c(=O)c(C)c32)c1 [Trametinib] (partner 0.02 µM)
Outline: (§1)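 Cells from lung cancer lines were seeded into 1536-well plates and, one day later, dosed by pin tool. Treatments were either a single drug or a fixed dose of an anchor drug with five library-drug doses (not always all listed) in √10 steps. After 5 days, nuclei were stained in a one-step fixation (final 0.05% Triton X-100, 1% formaldehyde, 1 ug/ml Hoechst) and counted on 4× images, and relative viability is the treated-to-vehicle nuclei ratio, as the median of duplicate plates.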

[2] = compound: Cc1nc(Nc2ncc(C(=O)Nc3c(C)cccc3Cl)s2)cc(N2CCN(CCO)CC2)n1 [Dasatinib] + COc1cccc2cc(-c3nc([C@H]4CC[C@H](C(=O)O)CC4)n4ncnc(N)c34)[nH]c12 [OSI-027] (partner 0.5 µM)
Outline: as §1

[3] = compound: Cc1ccc(C(=O)Nc2cccc(C(F)(F)F)c2)cc1Nc1cncc(C(N)=O)c1 [ALW-II-49-7] + Nc1ncn([C@H]2C[C@H](O)[C@@H](CO)O2)c(=O)n1 [Decitabine] (partner 2 µM)
Outline: as §1

[4] = compound: Cc1nc(Nc2ncc(C(=O)Nc3c(C)cccc3Cl)s2)cc(N2CCN(CCO)CC2)n1 [Dasatinib] + CC(=O)c1c(C)c2cnc(Nc3ccc(N4CCNCC4)cn3)nc2n(C2CCCC2)c1=O [Palbociclib] (partner 0.5 µM)
Outline: as §1

Cell Line | relative viability ([1]; first compound 0.08 µM) | relative viability ([1]; first compound 0.253 µM) | relative viability ([1]; first compound 0.8 µM) | relative viability ([1]; first compound 2.53 µM) | relative viability ([1]; first compound 8 µM) | relative viability ([2]; first compound 0.005 µM) | relative viability ([2]; first compound 0.01581 µM) | relative viability ([2]; first compound 0.05 µM) | relative viability ([2]; first compound 0.1581 µM) | relative viability ([2]; first compound 0.5 µM) | relative viability ([3]; first compound 0.08 µM) | relative viability ([3]; first compound 0.253 µM) | relative viability ([3]; first compound 0.8 µM) | relative viability ([3]; first compound 2.53 µM) | relative viability ([3]; first compound 8 µM) | relative viability ([4]; first compound 0.005 µM) | relative viability ([4]; first compound 0.01581 µM) | relative viability ([4]; first compound 0.05 µM) | relative viability ([4]; first compound 0.1581 µM) | relative viability ([4]; first compound 0.5 µM)
NCI-H2126 | 0.595 | 0.561 | 0.541 | 0.526 | 0.574 | 0.722 | 0.551 | 0.623 | 0.611 | 0.307 | 0.604 | 0.562 | 0.545 | 0.587 | 0.592 | 0.362 | 0.347 | 0.309 | 0.298 | 0.285
NCI-H2170 | 0.925 | 0.937 | 0.977 | 0.924 | 0.854 | 0.71 | 0.635 | 0.711 | 0.568 | 0.323 | 0.542 | 0.478 | 0.5 | 0.464 | 0.468 | 0.377 | 0.394 | 0.397 | 0.288 | 0.204
NCI-H2342 | 0.709 | 0.817 | 0.828 | 0.69 | 0.786 | 0.563 | 0.503 | 0.518 | 0.403 | 0.36 | 0.714 | 0.767 | 0.697 | 0.693 | 0.783 | 0.483 | 0.646 | 0.464 | 0.393 | 0.267
NCI-H2347 | 0.326 | 0.299 | 0.252 | 0.297 | 0.28 | 0.233 | 0.242 | 0.269 | 0.234 | 0.218 | 0.714 | 0.647 | 0.57 | 0.718 | 0.681 | 0.393 | 0.438 | 0.415 | 0.329 | 0.224
NCI-H2405 | 0.662 | 0.699 | 0.637 | 0.47 | 0.467 | 0.581 | 0.418 | 0.353 | 0.245 | 0.161 | 0.699 | 0.751 | 0.75 | 0.685 | 0.722 | 0.498 | 0.374 | 0.3 | 0.219 | 0.186
NCI-H3122 | 0.243 | 0.235 | 0.292 | 0.311 | 0.222 | 0.994 | 1.01 | 1.05 | 0.921 | 0.82 | 0.42 | 0.392 | 0.585 | 0.469 | 0.42 | 0.201 | 0.214 | 0.207 | 0.239 | 0.131
PC-3 [JPC-3] | 0.676 | 0.786 | 0.745 | 0.809 | 0.847 | 0.764 | 0.739 | 0.759 | 0.73 | 0.38 | 0.785 | 0.95 | 0.771 | 0.814 | 0.873 | 0.593 | 0.534 | 0.607 | 0.568 | 0.465
PC-14 | 0.722 | 0.826 | 0.717 | 0.683 | 0.665 | 0.99 | 0.772 | 0.679 | 0.384 | 0.0679 | 0.247 | 0.22 | 0.218 | 0.266 | 0.222 | 0.561 | 0.502 | 0.427 | 0.221 | 0.0393
RERF-LC-KJ | 0.867 | 0.923 | 0.816 | 0.749 | 0.833 | 0.576 | 0.475 | 0.514 | 0.382 | 0.376 | 0.694 | 0.783 | 0.729 | 0.732 | 0.611 | 1.08 | 0.994 | 1.11 | 0.782 | 0.81
SK-LU-1 | 0.569 | 0.571 | 0.486 | 0.408 | 0.442 | 0.271 | 0.167 | 0.167 | 0.14 | 0.152 | 0.658 | 0.61 | 0.489 | 0.639 | 0.5 | 0.34 | 0.228 | 0.241 | 0.207 | 0.189
SK-MES-1 | 0.573 | 0.628 | 0.562 | 0.6 | 0.447 | 0.738 | 0.57 | 0.409 | 0.21 | 0.14 | 0.354 | 0.35 | 0.473 | 0.445 | 0.398 | 0.353 | 0.358 | 0.269 | 0.187 | 0.154
SW 900 | 0.864 | 0.869 | – | 0.727 | 0.874 | 0.588 | 0.547 | 0.481 | 0.311 | 0.14 | 0.506 | 0.487 | – | 0.552 | 0.661 | 0.454 | 0.273 | 0.276 | 0.222 | 0.183
SW 1573 | 0.561 | 0.556 | 0.611 | 0.637 | 0.491 | 0.638 | 0.532 | 0.393 | 0.408 | 0.296 | 0.442 | 0.601 | 0.654 | 0.44 | 0.423 | 0.36 | – | 0.295 | 0.182 | 0.208
